IC50 and Stability data for 43 compounds are collected here from ChEMBL document CHEMBL4007403, “Identification of Triazolothiadiazoles as Potent Inhibitors of the dCTP Pyrophosphatase 1” (J Med Chem, 2017).

The target in data set [1] is T1, dCTP pyrophosphatase 1 (Homo sapiens, UniProt Q9H773).
T1 sequence (Q9H773 whole entry): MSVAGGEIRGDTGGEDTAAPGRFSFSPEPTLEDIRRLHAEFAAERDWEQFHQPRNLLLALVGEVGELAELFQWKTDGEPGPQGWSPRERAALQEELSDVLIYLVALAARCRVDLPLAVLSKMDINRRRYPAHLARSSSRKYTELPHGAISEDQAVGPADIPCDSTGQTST
The experiment in a line: Inhibition of recombinant human N-terminal His-tagged dCTPase 1 expressed in Escherichia coli BL21(DE3)pLysS using dCTP as substrate after 1 hr by malachite green reagent based assay.

A short description of data set [2]: Stability of the compound in DMSO measured after several months by HPLC-MS analysis. Type of data set: physicochemical.
Data set [3] is described as follows: Stability of the compound in biochemical assay buffer under mildly acidic mobile phase conditions by HPLC-MS analysis. Type of data set: physicochemical.
Data set [4] is described as follows: Stability of the compound in biochemical assay buffer under basic mobile phase conditions by HPLC-MS analysis. Type of data set: physicochemical.

One may read the IC50 as the concentration at which inhibition is half-maximal.

As for `c1ccc(-c2nnc3sc(-c4cccnc4)nn23)nc1`, the IC50 in data set [1] is 233 nM. Moreover, the Stability entry in data set [2], in data set [3] and in data set [4] was “Stable” each time.

For the compound `COc1cccc(-c2nn3c(-c4ccncc4)nnc3s2)c1`, the IC50 in data set [1] is above 10000 nM. For the same compound, the Stability result in data set [2], in data set [3] and in data set [4] was “Stable” in each case.

As to `CCOc1ccc(-c2nn3c(-c4ccccn4)nnc3s2)cc1OCC`, the IC50 in data set [1] stood at 1170 nM. The Stability result in data set [2], in data set [3] and in data set [4] was “Stable” each time.

With `c1coc(-c2nnc3sc(-c4csc5c4CCCC5)nn23)c1`, the IC50 in data set [1] was found to be 144 nM. The Stability entry in data set [2], in data set [3] and in data set [4] was “Stable” throughout.

As to `Cc1cccc(-c2nn3c(-c4ccccn4)nnc3s2)c1`, in data set [1], the IC50 was determined as 449 nM. The Stability result in data set [2], in data set [3] and in data set [4] was “Stable” throughout.

For `COc1cc(OC)cc(-c2nn3c(-c4ccccn4)nnc3s2)c1`, the IC50 in data set [1] was determined as 276 nM. Also, the Stability entry in data set [2], in data set [3] and in data set [4] was “Stable” in each case.

On to `Cc1ccccc1-c1nn2c(-c3ccccn3)nnc2s1`, for which the IC50 in data set [1] is 505 to 746 nM. Also, the Stability entry in data set [2], in data set [3] and in data set [4] was “Stable” each time.

Consider `Clc1ccccc1-c1nn2c(-c3ccccn3)nnc2s1`, for which the IC50 in data set [1] amounted to 440 nM. For the same compound, the Stability result in data set [2], in data set [3] and in data set [4] was “Stable” in each case.

As for `CCc1cc(-c2nnc3sc(-c4ccccc4)nn23)n(C)n1`, the IC50 in data set [1] was above 10000 nM. For the same compound, the Stability result in data set [2], in data set [3] and in data set [4] was “Stable” in each case.

Turning to `COc1ccc(-c2nn3c(-c4ccccc4F)nnc3s2)cc1`, the IC50 in data set [1] turned out to be 208 nM. In addition, the Stability result in data set [2], in data set [3] and in data set [4] was “Stable” each time.

`Clc1ccc(/C=C/Cc2nn3c(-c4ccccn4)nnc3s2)cc1`: the IC50 in data set [1] worked out at 220 nM. Also, the Stability result in data set [2], in data set [3] and in data set [4] was “Stable” throughout.

Turning to `Brc1ccccc1-c1nn2c(-c3ccccn3)nnc2s1`, in data set [1], the IC50 came to 328 nM. Also, the Stability entry in data set [2], in data set [3] and in data set [4] was “Stable” each time.

In the case of `COc1cccc(-c2nn3c(-c4ccccn4)nnc3s2)c1`, the IC50 in data set [1] turned out to be 1880 nM. Besides, the Stability entry in data set [2], in data set [3] and in data set [4] was “Stable” in each case.

Consider `c1coc(-c2nnc3sc(-c4ccc5ccccc5n4)nn23)c1`, for which the IC50 in data set [1] amounted to 177 nM. The Stability result in data set [2], in data set [3] and in data set [4] was “Stable” in each case.

Regarding `CN(C)c1cccc(-c2nn3c(-c4ccccn4)nnc3s2)c1`, the IC50 in data set [1] amounted to 277 nM. Further, the Stability entry in data set [2], in data set [3] and in data set [4] was “Stable” in each case.

With `Fc1ccccc1-c1nnc2sc(-c3ccccc3)nn12`, in data set [1], the IC50 is 410 nM. Moreover, the Stability result in data set [2], in data set [3] and in data set [4] was “Stable” throughout.

For the compound `Ic1ccccc1-c1nn2c(-c3ccccn3)nnc2s1`, the IC50 in data set [1] came out at 505 nM. Further, the Stability result in data set [2], in data set [3] and in data set [4] was “Stable” throughout.

For `c1ccc(-c2nn3c(-c4ccco4)nnc3s2)cc1`, the IC50 in data set [1] worked out at 592 nM. Besides, the Stability entry in data set [2], in data set [3] and in data set [4] was “Stable” each time.

Take `COc1ccc(-c2nn3c(-c4ccccn4)nnc3s2)cc1`: the IC50 in data set [1] was 282 to 316 nM. In addition, the Stability result in data set [2], in data set [3] and in data set [4] was “Stable” throughout.

For `Cc1onc(-c2cccs2)c1-c1nn2c(-c3ccco3)nnc2s1`, in data set [1], the concentration for half-maximal inhibition (IC50) came out at 1030 nM. Also, the Stability entry in data set [2], in data set [3] and in data set [4] was “Stable” each time.

Consider `c1ccc(CCCCc2nn3c(-c4ccccn4)nnc3s2)cc1`, for which the IC50 in data set [1] came to 1370 nM. Further, the Stability entry in data set [2], in data set [3] and in data set [4] was “Stable” in each case.

With `c1ccc(-c2nnc3sc(-c4cc5ccccc5o4)nn23)nc1`, the IC50 in data set [1] is 401 nM. The Stability result in data set [2], in data set [3] and in data set [4] was “Stable” in each case.

In the case of `COc1ccccc1-c1nn2c(-c3ccccn3)nnc2s1`, in data set [1], the IC50 was 1030 nM. Moreover, the Stability result in data set [2], in data set [3] and in data set [4] was “Stable” in each case.

On to `Clc1ccc(-c2nn3c(-c4ccccn4)nnc3s2)cc1`, for which the IC50 in data set [1] turned out to be 204 nM. Further, the Stability result in data set [2], in data set [3] and in data set [4] was “Stable” in each case.

For `CCCCc1nnc2sc(-c3cc(C)nc4ccccc34)nn12`, the IC50 in data set [1] stood at 5610 nM. Moreover, the Stability result in data set [2], in data set [3] and in data set [4] was “Stable” each time.

With `CCCc1nnc2sc(-c3ccc(OC)cc3)nn12`, the IC50 in data set [1] was determined as 6970 nM. Further, the Stability result in data set [2], in data set [3] and in data set [4] was “Stable” in each case.

On to `Cc1ccc(-c2nn3c(-c4ccccn4)nnc3s2)cc1`, for which the IC50 in data set [1] is 469 nM. In addition, the Stability entry in data set [2], in data set [3] and in data set [4] was “Stable” throughout.

With `COc1cccc(-c2nnc3sc(-c4ccncc4)nn23)c1`, the IC50 in data set [1] was 1020 nM. The Stability entry in data set [2], in data set [3] and in data set [4] was “Stable” throughout.

Turning to `Brc1ccc(-c2nn3c(-c4ccccn4)nnc3s2)cc1`, in data set [1], the IC50 amounted to 164 nM. The Stability entry in data set [2], in data set [3] and in data set [4] was “Stable” throughout.

With `C=CCOc1ccc(-c2nn3c(-c4ccccn4)nnc3s2)cc1`, the IC50 in data set [1] was 1210 nM. Moreover, the Stability entry in data set [2], in data set [3] and in data set [4] was “Stable” in each case.

In the case of `CCOc1ccc(-c2nn3c(-c4ccccn4)nnc3s2)cc1`, the IC50 in data set [1] turned out to be 449 nM. Also, the Stability entry in data set [2], in data set [3] and in data set [4] was “Stable” throughout.

For `C(=C\c1cccnc1)/Cc1nn2c(-c3ccco3)nnc2s1`, the IC50 in data set [1] was found to be 453 nM. Besides, the Stability entry in data set [2], in data set [3] and in data set [4] was “Stable” each time.

Take `CCc1noc(C)c1-c1nn2c(-c3cccs3)nnc2s1`: in data set [1], the IC50 came out at 346 nM. The Stability entry in data set [2], in data set [3] and in data set [4] was “Stable” throughout.

In the case of `c1coc(-c2nnc3sc(-c4cccs4)nn23)c1`, the IC50 in data set [1] turned out to be 704 nM. Also, the Stability entry in data set [2], in data set [3] and in data set [4] was “Stable” throughout.

Turning to `Clc1cccc(-c2nn3c(-c4ccccn4)nnc3s2)c1`, the IC50 in data set [1] amounted to 271 nM. The Stability entry in data set [2], in data set [3] and in data set [4] was “Stable” in each case.

`c1ccc(-c2nnc3sc(-c4ccc5ccccc5c4)nn23)nc1`: the IC50 in data set [1] was 95 nM. Moreover, the Stability result in data set [2], in data set [3] and in data set [4] was “Stable” in each case.

Turning to `Fc1cccc(-c2nn3c(-c4ccccn4)nnc3s2)c1`, the IC50 in data set [1] amounted to 357 nM. The Stability result in data set [2], in data set [3] and in data set [4] was “Stable” each time.

With `c1ccc(-c2nnc3sc(-c4cccc5ccccc45)nn23)nc1`, the IC50 in data set [1] came out at 204 nM. Moreover, the Stability result in data set [2], in data set [3] and in data set [4] was “Stable” in each case.

With `Cc1ccccc1-c1nn2c(-c3cnccn3)nnc2s1`, the IC50 in data set [1] was 691 nM. Further, the Stability result in data set [2], in data set [3] and in data set [4] was “Stable” in each case.

As for `Fc1ccccc1-c1nn2c(-c3ccccn3)nnc2s1`, in data set [1], the IC50 turned out to be 670 nM. The Stability entry in data set [2], in data set [3] and in data set [4] was “Stable” in each case.

For the compound `c1ccc(-c2nn3c(-c4ccccn4)nnc3s2)cc1`, the IC50 in data set [1] amounted to 619 nM. The Stability result in data set [2], in data set [3] and in data set [4] was “Stable” throughout.

For `Brc1cccc(-c2nn3c(-c4ccccn4)nnc3s2)c1`, in data set [1], the IC50 came to 602 nM. Further, the Stability entry in data set [2], in data set [3] and in data set [4] was “Stable” throughout.

Regarding `Clc1ccc(-c2nn3c(-c4ccccn4)nnc3s2)c(Cl)c1`, in data set [1], the IC50 turned out to be 419 nM. For the same compound, the Stability result in data set [2], in data set [3] and in data set [4] was “Stable” in each case.
